# Assay results published in patent US20080269335A1, “Crth2 Receptor Antagonists” (priority 2004, published 2008).
# Read-outs that look alike come from different tables or passages of the source.
# Tests used:
# CRTh2 receptor [1] = biological target: T1, CRTh2 receptor (Homo sapiens, UniProt Q9Y5Y4); experiment: Scintillation Proximity Assay (SPA) binding assay, 3H prostaglandin D2; design: expressed in transfected cells; host or cells: K562 or CHO cells (membranes)
# T1 sequence (Q9Y5Y4 1-395): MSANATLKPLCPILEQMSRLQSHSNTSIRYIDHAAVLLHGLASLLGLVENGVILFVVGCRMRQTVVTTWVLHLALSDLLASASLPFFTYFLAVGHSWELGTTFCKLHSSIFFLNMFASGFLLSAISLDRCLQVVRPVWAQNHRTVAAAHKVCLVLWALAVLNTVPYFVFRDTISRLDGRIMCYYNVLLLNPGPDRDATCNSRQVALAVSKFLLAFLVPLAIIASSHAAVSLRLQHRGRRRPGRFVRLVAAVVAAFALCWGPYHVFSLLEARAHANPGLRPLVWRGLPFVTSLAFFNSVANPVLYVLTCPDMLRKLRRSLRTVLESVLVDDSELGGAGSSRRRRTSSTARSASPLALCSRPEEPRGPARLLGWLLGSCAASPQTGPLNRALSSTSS
# Protocol: Scintillation Proximity Assay (SPA) Protocol
# Membranes are prepared from K562 or Chinese hamster ovary (CHO) cells stably transfected with human CRTh2 receptors.
# The assay is performed in a 96 well U-bottomed polypropylene plate in a final volume of 100 μL. For each concentration of test compound on the dose-response curve, the components of the assay are added sequentially as follows: test compound in DMSO/assay buffer (25 μL), ^3H prostaglandin D2 (25 μL) and CRTh2 membrane fragments (50 μL). The assay is incubated at ambient temperature with shaking for 60 minutes, and then harvested on to filter plates. The plate is dried for 2 hours, prior to addition of Micro-Scint 20™ (50 μL) and sealing with TopSeal-S™. Plates are then counted using a Packard Top Count instrument, each well being counted for 20 minutes. Ki values are determined using Sigma Plot™ software, using the Cheng-Prussoff equation.
# CRTh2 receptor [2] = biological target: T1, CRTh2 receptor; experiment: CRTh2 cAMP functional assay; assay type: cell-based; design: expressed in transfected cells; host or cells: CHO cells; details: CHO cells stably transfected with CRTh2; 10 nM Prostaglandin D2 and 5 μM forskolin; cAMP Alphascreen
# Protocol: CRTh2 cAMP Functional Assay Protocol
# For each concentration value on the dose-response curve, test compounds are prepared in assay stimulation buffer/DMSO and 5 μL/well is added to an assay plate (384 well, white optiplate).
# CHO cells stably transfected with the CRTh2 receptor are prepared (dissociated from a cell culture flask and washed in PBS) to a concentration of 4×10^6/mL in assay stimulation buffer and added to the assay plate ([…]).
# The assay plate is incubated at room temperature on a shaker for 15 minutes.
# A mix of agonist (10 nM Prostaglandin D2) and 5 μM forskolin is prepared in assay stimulation buffer and added to the assay plate (5 μL/well).
# In addition, a cAMP standard is serially diluted in assay stimulation buffer and added to separate empty wells on the assay plate (20 μL/well).
# The assay plate is incubated at room temperature on a shaker for 60 minutes.
# A cell lysis mix (lysis buffer containing Alphascreen™ donor beads and biotinylated cAMP) is prepared under darkened conditions 60 minutes prior to addition. Alphascreen™ acceptor beads are added to the lysis mix after 60 minutes. The resulting lysis mix is added to all wells of the assay plate (40 μL/well).
# The assay plate is sealed with Topseal-S™ and incubated in the dark at room temperature on a shaker for 45 minutes. The plate is then counted using a Packard Fusion™ instrument.
# The resulting counts per minute are converted to nM cAMP by using the prepared cAMP standard curve. IC50 values are then determined using Prism™ software.
# [3] = membranes from K562 or CHO cells stably transfected with human CRTh2, 3H prostaglandin D2, read-out: Ki values in the SPA binding assay
Ki (CRTh2 receptor [1]; [3]),IC50 (CRTh2 receptor [2]),SMILES,Ki (CRTh2 receptor [1])
70 nM,138 nM,"O=C(O)COc1ccc(Br)cc1C1CCCCCC1 [Example 5, (4-Bromo-2-cycloheptylphenoxy)acetic acid]",–
21 nM,139 nM,"O=C(O)COc1ccc(C(F)(F)F)cc1C1CCCCC1 [Example 13, (2-Cyclohexyl-4-trifluoromethyl-phenoxy)-acetic acid]",–
–,190 nM,"O=C(O)COc1ccc(Br)cc1C1CCCCC1 [Example 3, (4-Bromo-2-cyclohexylphenoxy)acetic acid]",–

SMILES,Ki (CRTh2 receptor [1]; [3]),IC50 (CRTh2 receptor [2]),Ki (CRTh2 receptor [1])
"O=C(O)COc1ccc(Cl)cc1C1CCCCCC1 [Example 2, (4-Chloro-2-cycloheptylphenoxy)acetic acid]",–,148 nM,60 nM
